Experimental data published in patent publication US20160137639A1, “TRIAZOLE-ISOXAZOLE COMPOUND AND MEDICAL USE THEREOF” (JAPAN TOBACCO INC., priority 2012, published 2016).
Where two headings read alike, the source gives them in different places.

How the values were obtained:
human RORγ = biological target: T1, human RORγ (Homo sapiens, UniProt P51449); assay: Luciferase reporter gene assay of inhibitory effect against RORγ transcriptional activity (GAL4-hRORγ plasmid in CHO cells); format: cell-based
T1 construct: human, NM_005060.3 and from Ser253 to Lys518; expressed in transfected cells; host or cells: CHO cells (transient co-transfection with pG5-Luc reporter)
T1 sequence (P51449 253-518): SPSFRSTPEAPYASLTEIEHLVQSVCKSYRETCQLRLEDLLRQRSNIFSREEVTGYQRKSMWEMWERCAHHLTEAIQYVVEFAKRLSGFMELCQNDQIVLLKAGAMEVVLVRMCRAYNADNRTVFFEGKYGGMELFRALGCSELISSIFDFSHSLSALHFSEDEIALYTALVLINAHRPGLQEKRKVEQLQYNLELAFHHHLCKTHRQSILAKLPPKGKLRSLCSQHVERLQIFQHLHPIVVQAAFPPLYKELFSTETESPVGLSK

mouse RORγ = biological target: T2, mouse RORγ (Mus musculus, UniProt P51450); assay: Luciferase reporter gene assay of inhibitory effect against RORγ transcriptional activity (GAL4-mRORγ plasmid in CHO cells); format: cell-based
T2 construct: mouse, NM_011281.2 and from Ile251 to Lys516; expressed in transfected cells; host or cells: CHO cells (transient co-transfection with pG5-Luc reporter)
T2 sequence (P51450 251-516): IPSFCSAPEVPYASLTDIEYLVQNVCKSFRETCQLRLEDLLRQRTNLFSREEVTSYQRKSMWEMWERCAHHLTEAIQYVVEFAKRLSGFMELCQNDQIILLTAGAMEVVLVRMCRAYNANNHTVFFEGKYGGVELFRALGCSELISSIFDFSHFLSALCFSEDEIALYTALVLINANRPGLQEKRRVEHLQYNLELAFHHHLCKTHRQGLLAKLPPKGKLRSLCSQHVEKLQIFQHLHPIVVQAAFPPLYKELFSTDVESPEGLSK
Outline: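 CHO cells transiently co-transfected with GAL4-mouse RORγ LBD (Ile251–Lys516) and GAL4-dependent luciferase reporter; eight compound concentrations, 0.1% DMSO, 2 days at 37 °C. Luminescence as %-of-vehicle control; EC50 by curve fit, cytotoxic concentrations excluded.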

Row | Compound | EC50 (human RORγ; read-out: LUC EC50 (μM) hRORg) | EC50 (mouse RORγ; read-out: LUC EC50 (μM) mRORg) | EC50 (human RORγ; read-out: LUC EC50 hRORg) | EC50 (mouse RORγ; read-out: LUC EC50 mRORg)
1 | Cc1ccc(NC(=O)CCc2nnc(-c3ccc(CC(C)C)cc3)n2C2CC2)c(C)c1 [Example F-404] | < 3 µM | < 3 µM | – | –
2 | Cc1ccc(NC(=O)C[C@H](CCC(=O)O)c2noc(-c3cc(CCC(C)C)on3)c2C(F)(F)F)c(F)c1 [Example E-13] | > 3 µM | < 3 µM | – | –
3 | CC(C)(C)C[C@H]1C[C@@H](c2noc([C@@H](CCC(=O)O)CC(=O)Nc3ccc(Cl)cc3F)c2C2CC2)C1 [Example F-717] | – | – | < 3 µM | < 3 µM
4 | CC(=O)N1C[C@H](C(=O)Nc2ccc(C)cc2C)[C@@H](c2nnc(-c3ccc(C(C)C)cc3)n2C2CC2)C1 (racemic) [Example F-319] | < 3 µM | < 3 µM | – | –
5 | COC(=O)C(C)(C)CCCc1nnc(CCC(=O)Nc2cccc(Cl)c2C)n1C1CC1 [Example F-230] | < 3 µM | < 3 µM | – | –
6 | CC(C)CCc1nnc(CCC(=O)NCc2cccc3[nH]ncc23)n1C1CC1 [Example F-128] | > 3 µM | > 3 µM | – | –
